This is an account of results in patent US4432348A, “Enhancer of anti-tumor effect” (Yamasa Shoyu Kabushiki Kaisha, priority 1980, dated 1984).

Broadly, the LD50 is the dose at which mortality reaches 50%. Low readings indicate greater toxicity, high ones lower toxicity.

Data set [1] deals with EMT-6 tumor. Description: Radiosensitizing effect on EMT-6 experimental tumors in mice (enhancer i.p. after local irradiation). The following applies: for Radiosensitizing activity: summary statement; for Diameter ratio / Mean tumor diameter / Volume ratio: irradiation 1500 rad + i.p. enhancer (3'-dGuo-5'-MP 100 mg/kg; 3'-dAdo-5'-MP 75 mg/kg); for 0.5 to less than 1 of volume ratio excluding cure; Tumor regression rate: slow, share of mice / 1.0 to less than 2.0 of volume ratio excluding cure; regrowth: slow, share of mice / 2.0 or more of volume ratio excluding cure; regrowth: rapid, share of mice / Cure (tumors completely vanished), share of mice / Less than 0.5 of volume ratio excluding cure; Tumor regression rate: rapid, share of mice: 28th day after treatment, irradiation 1500 rad + enhancer (3'-dGuo-5'-MP 100 mg/kg; 3'-dAdo-5'-MP 75 mg/kg); for Mean tumor diameter at the time of irradiation: baseline before irradiation (1500 rad) and i.p. enhancer (3'-dGuo-5'-MP 100 mg/kg, n = 9; 3'-dAdo-5'-MP 75 mg/kg, n = 10). In kind it is in vivo, BALB/c-strain female mice. As to the method:
EMT-6 tumor cells (2×10^5) were inoculated intradermally into the right thighs of BALB/c-strain female mice (8 weeks old, 6 or more mice for each group). When the tumor size reached 6 to 7 mm in diameter after inoculation of the tumor cells, local irradiation with a 32 MeV electron beam was carried out at 1,500 rad under no anesthesia and thereafter 3'-dGuo-5'-MP and 3'-dAdo-5'-MP dissolved in physiological saline solution, was administered intraperitoneally to each mouse in the indicated doses of respective agents. After these treatments, the tumor sizes were measured in tri-dimensional diameters every day or every other day for 28 days, and compared with the control group with respect to the following items: [formula]
The results are shown in Table 1 and Table 2, in which "cure" means that the tumors completely vanished during the observation period.

The test system of data set [2] is potentially lethal damage repair (PLDR). Description: Inhibition of potentially lethal damage repair (PLDR). The text has this:
In view of the fact that the tumor cells with radioresistance under hypoxic conditions are at a quiescent stage, I have investigated the possibility of radiosensitization by inhibiting potentially lethal damage repair (hereinafter referred to as "PLDR"), which is especially marked in quiescent cells.

Data set [3] concerns adenosinedeaminase. The following applies: in bodies; cited from earlier work.
For data set [4] the following is noted: background art; cited from earlier work.
The nature of data set [5]: Acute toxicity test, intraperitoneal. The following applies: mouse, in vivo, ip, ICR mice, male, 8 weeks old, observed for a week. The protocol: The compounds of this invention were administered intraperitoneally to ICR mice (male, 8 weeks old, 10 mice for each group), and the mice were subjected to observation for a week.
The test system of data set [6] is EMT-6 tumor. Put plainly: Enhancement of the effect of anti-tumor agents (araC) on EMT-6 experimental tumors in mice. The format is in vivo, BALB/c-strain female mice. As to the method: EMT-6 tumor cells (1×10^6) were inoculated intradermally into the right thighs of BALB/c-strain female mice (8 weeks old). On the 11th day after inoculation of the tumor cells and thereafter, 3'-dGuo-5'-MP in physiological saline solutions were administered intrapenitoneally to the mice for 8 consecutive days in the dose of 50 mg/kg. The pharmaceutical agents of the present invention were administered an hour after administration of araC. After commencement of the treatment with pharmaceutical agents, the tumor sizes were measured and compared with the control group.

Data set [7] has as its system adenosinedeaminase. The following applies: cited from earlier work.
[8] abbreviates: 7 days after commencement of treatment, single agent 50 mg/kg × 8.
[9] abbreviates: 7 days after commencement of treatment, single agent 50 mg/kg × 8 (n = 10).
Where [10] appears, read: 14 days after commencement of treatment, single agent 50 mg/kg × 8.
Where [11] appears, read: 14 days after commencement of treatment, single agent 50 mg/kg × 8 (n = 10).
Where [12] appears, read: 21 days after commencement of treatment, single agent 50 mg/kg × 8.
[13] abbreviates: 21 days after commencement of treatment, single agent 50 mg/kg × 8 (n = 10).
Where [14] appears, read: immediately before commencement of treatment, single agent 50 mg/kg × 8 (n = 10).

Regarding `Nc1ncnc2c1ncn2[C@@H]1O[C@H](CO)C[C@H]1O` [3'-dAdo, 3'-deoxyadenosine], the Radiosensitizing activity result in data set [1] is on record as “excellent radiosensitizing activities”. For the same compound, in data set [2], the PLDR-inhibiting ability result is “confirmed to have a PLDR-inhibiting ability”. The “PLDR-inhibiting ability in combination with 2'-deoxycoformycin” value in data set [2] (in combination with 2'-deoxycoformycin) was “can be strengthened and prolonged”. For the same compound, the Inactivation by adenosinedeaminase result in data set [3] is listed as “readily inactivated by adenosinedeaminase”. Besides, the “Toxicity / side effects” value in data set [4] is “various side effects”.
For `Nc1ncnc2c1ncn2[C@@H]1O[C@H](COP(=O)(O)O)C[C@H]1O` [3'-dAdo-5'-MP, 3'-deoxyadenosine-5'-monophosphate], in data set [1] (2 weeks after treatment), the Diameter ratio is 0.66 ± 0.14, the Mean tumor diameter was determined as 4.75 ± 1.06 mm and the Volume ratio was 0.63 ± 0.18. In data set [1] (3 weeks after treatment), the Diameter ratio was 0.49 ± 0.17, the Mean tumor diameter was found to be 3.65 ± 1.24 mm and the Volume ratio was found to be 0.58 ± 0.27. Moreover, in data set [1], the “0.5 to less than 1 of volume ratio excluding cure; Tumor regression rate: slow, share of mice” value is 0%; the “1.0 to less than 2.0 of volume ratio excluding cure; regrowth: slow, share of mice” value was 20%; the “2.0 or more of volume ratio excluding cure; regrowth: rapid, share of mice” value is 10%; the “Cure (tumors completely vanished), share of mice” value was determined as 50%. In data set [1], the “Less than 0.5 of volume ratio excluding cure; Tumor regression rate: rapid, share of mice” value stood at 20%; the “Mean tumor diameter at the time of irradiation” value is reported as 7.07 ± 0.23 mm; the Radiosensitizing activity result is listed as “excellent radiosensitizing activities”. Moreover, the LD50 at 168 h in data set [5] amounted to 500 mg/kg.
Turning to `COCC(O)Cn1ccnc1[N+](=O)[O-]` (stereo not drawn) [misonidazole], the “Toxicity / side effects” value in data set [4] was “neurotoxicity”.
`Nc1nc2c(ncn2[C@@H]2O[C@H](COP(=O)(O)O)C[C@H]2O)c(=O)[nH]1` [3'-dGuo-5'-MP, 3'-deoxyguanosine-5'-monophosphate]: the Diameter ratio in data set [1] (2 weeks after treatment) was 0.93 ± 0.13; in data set [1] (3 weeks after treatment), 0.90 ± 0.18. The Mean tumor diameter in data set [1] (2 weeks after treatment) came out at 6.17 ± 0.90 mm; in data set [1] (3 weeks after treatment), 5.95 ± 1.22 mm; in data set [6] (setting [9]), 9.83 ± 1.07 mm; in data set [6] (7 days after commencement, combination araC 50 mg/kg × 8 + 3'-dGuo-5'-MP 50 mg/kg × 8 (1 h after araC)), 8.28 ± 1.11 mm; in data set [6] (setting [11]), 12.10 ± 2.00 mm; in data set [6] (14 days after commencement, combination araC 50 mg/kg × 8 + 3'-dGuo-5'-MP 50 mg/kg × 8 (1 h after araC)), 9.12 ± 3.67 mm. For the same compound, the Mean tumor diameter in data set [6] (setting [13]) amounted to 15.40 ± 2.01 mm; in data set [6] (21 days after commencement, combination araC 50 mg/kg × 8 + 3'-dGuo-5'-MP 50 mg/kg × 8 (1 h after araC)), 12.07 ± 4.98 mm; in data set [6] (immediately before commencement of treatment, combination araC 50 mg/kg × 8 + 3'-dGuo-5'-MP 50 mg/kg × 8 (n = 9)) it was 7.34 ± 0.62 mm; in data set [6] (setting [14]), 7.57 ± 0.64 mm. In addition, the results for the Volume ratio in data set [1] (2 weeks after treatment) and in data set [1] (3 weeks after treatment) were 1.19 ± 0.32 and 1.45 ± 0.46, respectively. In addition, the “0.5 to less than 1 of volume ratio excluding cure; Tumor regression rate: slow, share of mice” value in data set [1] stood at 22%. Moreover, the “1.0 to less than 2.0 of volume ratio excluding cure; regrowth: slow, share of mice” value in data set [1] is recorded as 56%. Moreover, in data set [1], the “2.0 or more of volume ratio excluding cure; regrowth: rapid, share of mice” value is recorded as 0%. In addition, in data set [1], the “Cure (tumors completely vanished), share of mice” value is 22%. Besides, the “Less than 0.5 of volume ratio excluding cure; Tumor regression rate: rapid, share of mice” value in data set [1] was 0%. Further, the “Mean tumor diameter at the time of irradiation” value in data set [1] came to 6.46 ± 0.23 mm. Also, the Radiosensitizing activity entry in data set [1] is on record as “excellent radiosensitizing activities”. Further, the “Mean tumor diameter ratio” value in data set [6] (setting [8]) is on record as 1.30 ± 0.13; in data set [6] (7 days after commencement, combination araC 50 mg/kg × 8 + 3'-dGuo-5'-MP 50 mg/kg × 8) it was 1.13 ± 0.15; in data set [6] (setting [10]) it was 1.61 ± 0.27; in data set [6] (14 days after commencement, combination araC 50 mg/kg × 8 + 3'-dGuo-5'-MP 50 mg/kg × 8), 1.26 ± 0.51; in data set [6] (setting [12]), 2.05 ± 0.32; in data set [6] (21 days after commencement, combination araC 50 mg/kg × 8 + 3'-dGuo-5'-MP 50 mg/kg × 8), 1.67 ± 0.68. Also, in data set [5], the LD50 at 168 h is greater than 1000 mg/kg.
`OC[C@H]1O[C@@H](n2cnc3c2NC=NC[C@H]3O)C[C@@H]1O` [2'-deoxycoformycin]: in data set [4], the “Toxicity / side effects” value is given as “may cause damage to the immune systems”. The Adenosinedeaminase inhibition entry in data set [7] is given as “inhibitor against adenosinedeaminase”.
Consider `Nc1ccn([C@@H]2O[C@H](CO)[C@@H](O)[C@@H]2O)c(=O)n1` [araC, 1-β-D-arabinofuranosylcytosine, reference compound], for which the “Mean tumor diameter ratio” value is recorded as 1.29 ± 0.13 in data set [6] (setting [8]), 1.60 ± 0.20 in data set [6] (setting [10]) and 2.08 ± 0.20 in data set [6] (setting [12]). Moreover, the Mean tumor diameter was found to be 9.63 ± 0.68 mm in data set [6] (setting [9]), 11.91 ± 1.21 mm in data set [6] (setting [11]), 15.49 ± 1.26 mm in data set [6] (setting [13]) and 7.49 ± 0.63 mm in data set [6] (setting [14]).
